{
  "source": "paper PMC5059851",
  "about": "“Inhibition of Hedgehog-dependent tumors and cancer stem cells by a newly identified naturally occurring chemotype” (Cell Death & Disease, 2016)",
  "key": {"Gli1 mRNA [1]": {"test_system": "Gli1 mRNA", "experiment": "Gli1 mRNA (qRT-PCR) in DAOY cells", "format": "cell-based, human", "conditions": "after treatment", "protocol": "(§1) After the indicated times, a trypan blue count was performed to determine the growth rate. […] Results were normalized to endogenous control (β-actin and HPRT).\n(§2) Total RNA was isolated with Trizol (Invitrogen/Life Technologies, Carlsbad, CA, USA) and reverse transcribed with SensiFAST cDNA Synthesis Kit (Bioline Reagents Limited, London, UK). Quantitative real-time PCR (Q-PCR) analysis of Gli1, Gli2, Ptch1, Bmp2, Pfkfb3, CycD1, CycD2, Pcna, Oct4, Nanog, β-2 microglobulin, β-actin and HPRT mRNA expression was performed on each cDNA sample using the VIIA7 Real Time PCR System employing Assay-on-Demand Reagents (Life Technologies)."}, "Gli1 mRNA [2]": {"test_system": "Gli1 mRNA", "experiment": "Gli1 mRNA (qRT-PCR) in 22Rv1 cells", "format": "cell-based, human", "conditions": "after treatment", "protocol": "as §1, §2"}, "human Smo D473H": {"biological_target": "T1, human Smo D473H (Homo sapiens, UniProt Q99835, D473H)", "T1 construct": "Myc-DDK; expressed in transfected cells; host or cells: HEK293T", "T1 sequence (Q99835 28-787 D473H)": "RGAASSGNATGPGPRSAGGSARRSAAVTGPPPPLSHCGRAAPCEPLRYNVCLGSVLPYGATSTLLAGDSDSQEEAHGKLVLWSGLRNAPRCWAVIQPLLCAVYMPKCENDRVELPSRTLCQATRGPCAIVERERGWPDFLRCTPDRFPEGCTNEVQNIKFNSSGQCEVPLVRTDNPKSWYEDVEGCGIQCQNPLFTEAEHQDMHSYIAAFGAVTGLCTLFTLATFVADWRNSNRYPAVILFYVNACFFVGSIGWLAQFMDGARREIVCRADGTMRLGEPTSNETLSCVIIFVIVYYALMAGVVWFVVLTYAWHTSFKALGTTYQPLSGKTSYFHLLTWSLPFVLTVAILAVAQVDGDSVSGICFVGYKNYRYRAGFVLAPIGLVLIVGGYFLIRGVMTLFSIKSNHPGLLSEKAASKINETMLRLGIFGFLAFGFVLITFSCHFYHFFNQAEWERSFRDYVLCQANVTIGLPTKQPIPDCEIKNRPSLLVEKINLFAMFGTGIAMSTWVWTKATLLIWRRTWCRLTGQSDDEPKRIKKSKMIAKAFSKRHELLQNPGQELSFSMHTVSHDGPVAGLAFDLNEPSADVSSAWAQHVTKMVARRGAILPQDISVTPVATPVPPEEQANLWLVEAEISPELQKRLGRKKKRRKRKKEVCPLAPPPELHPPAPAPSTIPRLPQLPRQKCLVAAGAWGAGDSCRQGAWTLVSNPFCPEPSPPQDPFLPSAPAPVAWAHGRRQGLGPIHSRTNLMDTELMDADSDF", "experiment": "Bodipy-Cyclopamine (BC) binding assay, HEK293T cells transfected with human Smo D473H", "protocol": "Cells were washed in PBS supplemented with 0.5% fetal bovine serum, fixed in 4% paraformaldehyde in phosphate-buffered saline (PBS) for 10 min, and incubated for 2 h at 37 °C both in the same medium supplemented with Bodipy-Cyclopamine (5 nM) and the studied compounds. The cells were permeabilized with Triton X100 (Sigma) 0.2%. Dako Fluorescent mounting (Dako, Carpinteria, CA, USA) was used as mounting medium and Hoechst reagent for staining of the cell nuclei. Bodipy (green) and Hoechst (blue) signals were analyzed in three to four representative fields per coverslip (× 20 magnification, 1000 cells/field). Data were expressed as percentage of BC incorporation observed with BC alone.[95]"}, "[3]": {"test_system": "Hh target genes in SuFu^−/− MEFs", "experiment": "qRT-PCR of endogenous Hh target genes in SuFu−/− MEFs", "format": "cell-based, mouse", "conditions": "48 h", "protocol": "as §2"}, "AP1/Jun pathway": {"test_system": "AP1/Jun pathway", "experiment": "AP1/Jun luciferase reporter assay (MMP1-luciferase reporter and c-Jun) in MEFs WT", "format": "cell-based, mouse", "conditions": "increasing concentrations, 24 h", "protocol": "Figure 2 Compound 12 inhibits Hh signaling without affecting AP1/Jun and WNT/β-Catenin pathways. (a) The graphs show the Hh target genes expression levels in Ptch1^−/− MEFs treated for 48 h with 12 or DMSO as control. mRNA levels were determined by quantitative real-time PCR (qRT-PCR) normalized to endogenous control (β2-microglobulin and HPRT). Pfkfb3 gene was used as negative control. *P<0.05 versus CTR. (b and c) AP1/Jun and WNT/β-Catenin pathways activity were assayed in MEFs WT transfected with MMP1-luciferase reporter and c-Jun (b) or Top Flash-luciferase reporter and β-Catenin (c), respectively, in the presence or absence of increasing concentrations of compound 12. Treatment time was 24 h, and normalization was against Renilla luciferase."}, "[4]": {"test_system": "cerebellar granule cell progenitors (GCPs)", "experiment": "BrdU proliferation assay in SAG-treated cerebellar granule cell progenitors", "format": "cell-based, mouse", "conditions": "SAG + compound at 5 and 10 μM, 48 h", "from_the_text": "Hh signaling is a critical regulator of cerebellum development controlling the proliferation of granule cell progenitors (GCPs) under Purkinje cell-derived Shh stimuli. Withdrawal of Hh signal, occurring physiologically after the first post-natal week in mice,[54] causes cell growth arrest and induces their differentiation into mature granules.[55] Importantly, genetic and epigenetic alterations in the Hh pathway are responsible for the lack of GCPs proliferation arrest, leading to the tumorigenic conversion of these progenitors, considered as the cell of origin of MB.[56], [57] To investigate the biological effects of 12, we first tested its ability to suppress Hh-dependent growth in 4-day-old mouse cerebellar progenitors.\nFigure 4 Compound 12 inhibition of Hh-dependent growth of cerebellum granule cell progenitors. […] (a) Inhibition of cell proliferation was measured as percentage of BrdU incorporation in comparison with SAG-treated sample. […] (c) qRT-PCR analysis show Hh and proliferation targets mRNA expression levels determined in GCPs culture derived from 4-day-old mouse cerebella treated with SAG alone or in combination with compound 12 at 5 and 10 μM concentrations for 48 h. […]\nCell proliferation was evaluated by BrdU detection (Roche, Welwyn Garden City, UK). […] At least 500 nuclei were counted in triplicate, and the number of BrdU-positive nuclei was recorded. […]"}, "[5]": {"test_system": "Hh pathway (Gli-responsive firefly luciferase reporter)", "experiment": "Hh-dependent Gli-luciferase reporter assay in SAG-treated NIH3T3 Shh-Light II cells", "format": "cell-based", "conditions": "SAG (200 nM)-treated NIH3T3 Shh-Light II cells, 48 h, normalized to Renilla; N.A. = Not Active", "protocol": "The inhibitory properties of the potential Smo antagonists 1–17 were investigated in a luciferase reporter assay that is widely used for characterizing Hh inhibitors. NIH3T3 Shh-Light II cells, stably incorporating a Gli-responsive firefly luciferase reporter (Gli-RE),[25] were treated with the synthetic Smo agonist SAG[24] alone or in combination with the selected small molecules to evaluate their dose–response ability to suppress Hh pathway. […] We excluded the possibility that inhibition activity in this assay was mediated by cytotoxicity because no decrease was shown in the luciferase assay control Renilla as observed instead for 13–17.\nThe luciferase assay was performed in Shh-Light II cells, stably incorporating a Gli-responsive luciferase reporter and the pRL-TK Renilla (normalization control), treated for 48 h with SAG (200 nM) and the studied compounds. Luciferase and Renilla activity were assayed with a dual-luciferase assay system according to the manufacturer's instruction (Biotium Inc., Hayward, CA, USA). Results are expressed as luciferase/Renilla ratios and represent the mean±S.D. of three experiments, each performed in triplicate."}},
  "note": "Entries after “also recorded” stand apart in the source; their conditions may differ.",
  "data": [
    {"smiles": "COc1ccc(C=CC(=O)c2cc(OC)c(OC)cc2OC)cc1OC", "note": "[Compound 12, 3-(3,4-dimethoxy-phenyl)-1-(2,4,5-trimethoxy-phenyl)-2-propen-1-one]", "values": [
      {"measurement": "Gli1 mRNA levels in DAOY cells", "setting": "Gli1 mRNA [1]", "result": "significant decrease of Gli1 mRNA levels"},
      {"measurement": "Gli1 mRNA levels in 22Rv1 cells", "setting": "Gli1 mRNA [2]", "result": "significant decrease of Gli1 mRNA levels"},
      {"measurement": "IC50", "setting": "human Smo D473H; BC (5 nM) displacement, transiently transfected 293T cells", "result": 22.7, "unit": "µM"},
      {"measurement": "activity on the D473H drug-resistant Smo mutant", "setting": "human Smo D473H; BC displacement assay", "result": "active"},
      {"measurement": "Fold shift human Smo", "setting": "human Smo D473H; IC50 Smo D473H / IC50 Smo WT", "result": 0.9257},
      {"measurement": "loss of affinity for the resistant Smo mutants in binding assay", "setting": "human Smo D473H; resistant Smo mutants versus WT", "result": "conserved the same affinity"},
      {"measurement": "expression of endogenous Hh target genes in SuFu^−/− MEFs", "setting": "[3]", "result": "suppressed the expression of endogenous Hh target genes"},
      {"measurement": "luciferase activity driven by Jun/AP1 signaling", "setting": "AP1/Jun pathway", "result": "without affecting luciferase activity; also recorded: inactive"},
      {"measurement": "BrdU uptake / proliferation rate of GCPs", "setting": "[4]", "result": "reduced significantly"},
      {"measurement": "IC50", "setting": "[5]", "result": 4.44, "unit": "µM"}
    ]}
  ]
}
